Results from patent publication US11166948B2, “Pharmaceutical composition for treatment of aortic aneurysm” (National University Corporation Hamamatsu University School …, priority 2017, dated 2021).

What was measured:
[1] = system: aortic wall hypoxia-induced rat AAA model; assay: Action of Compound 1 in aortic wall hypoxia-induced rat AAA model; type: in vivo; settings: vs control group; for mortality due to rupture (non-rupture survival rate): day of operation to Day 28 post operation
Excerpt: The action of Compound 1 in a rat AAA model (Non-Patent Document 3) induced by operation in which the aortic wall was separated from the surrounding tissue, a catheter was inserted, and then the abdominal aorta was ligated together with a catheter with a thread was studied.
In this test, Compound 1 was manufactured according to the method described in Patent Document 1, and mixed, in a proportion of 0.15%, with a normal diet (FR2, manufactured by Funabashi Farm Co., Ltd.), and the Compound 1-mixed diet was used.
Sprague-Dawley male rats (300 to 350 g: Japan SLC, Inc.) were used in the experiment. The rats were reared at room temperature of 25° C. ±1° C., and allowed to freely take the feed and water.
The model was created according to the method described in Non-Patent Document 3. Specifically, a rat AAA model was created by separating the rat aortic wall from the surrounding tissue, inserting a polyurethane catheter, and then ligating the abdominal aorta together with a plastic catheter with a monofilament thread, and inducing AAA.
The rat models were divided into two groups: a normal diet administration group (hereinafter referred to as “control group”) (n=20) and a 0.15% Compound 1-mixed diet administration group (hereinafter referred to as “Compound 1 group”) (n=20). The normal diet or Compound 1-mixed diet was freely fed in a period from one week before the AAA model creation operation (7 days before operation) to the end of the experiment.
In both the groups, up to 28 days post operation, the aneurysm diameter was measured by echo and comparison in survival was made.
In addition, the surviving animals were sacrificed after 28 days to analyze the AAA pathological tissue.
The AAA maximum short-axis diameter was measured with an ultrasonic diagnostic apparatus (Vevo770, manufactured by VisualSonics Inc.) on the day of operation and Day 7, Day 14, Day 21 and Day 28 post operation.
In the same models as in Example 1, the effect of Compound 1 on the formed AAA was studied.
Specifically, the administration of the Compound 1-mixed diet was started one week after the AAA model creation operation (7 days after operation) until the end of the experiment in this example, in place of one week before the AAA model creation operation (7 days before operation) until the end of the experiment in Example 1 (3). In addition, on Day 7 post operation, rats having an aortic aneurysm diameter of 3 mm or more were selected by measurement with an ultrasonic diagnostic apparatus (Vevo770, manufactured by VisualSonics Inc.), and then the rats were randomly divided into two groups: a normal diet administration group (hereinafter referred to as “control group”) (n=18) and a 0.15% Compound 1-mixed diet administration group (hereinafter referred to as “Compound 1 group”) (n=15). […]

[2] = system: elastase-induced model rats; settings: preventive administration before AAA formation; cited from earlier work

| Structure (SMILES) | aneurysm diameter (AAA maximum short-axis diameter) ([1]; Example 1: 0.15% Compound 1-mixed diet from 7 days before operation to end of experiment, echo up to Day 28 post operation, no significant difference) | mortality due to rupture (non-rupture survival rate) ([1]; Example 1: 0.15% Compound 1-mixed diet from 7 days before operation, Log Rank p=0.036) | mortality due to rupture (non-rupture survival rate) ([1]; Example 2: 0.15% Compound 1-mixed diet from 7 days after operation (formed AAA), Log Rank p=0.055) | aneurysm diameter (AAA maximum short-axis diameter) ([1]; Example 2: 0.15% Compound 1-mixed diet from 7 days after operation (formed AAA, diameter 3 mm or more), Day 7 to Day 14 post operation, p=0.014) | AAA dilatation [2] |
| --- | --- | --- | --- | --- | --- |
| O=C(NCCCOc1ccc2[nH]c(=O)ccc2c1)N(C1CC1)[C@@H]1CCCC[C@H]1O [Compound 1, (−)-6-[3-[3-cyclopropyl-3-[(1R,2R)-2-hydroxycyclohexyl]ureido]propoxy]-2(1H)-quinolinone] | tendency toward suppression of the increase in the aneurysm diameter | significantly lower | lower | significantly lower |  |
| O=C1CCc2cc(OCCCCc3nnnn3C3CCCCC3)ccc2N1 [cilostazol] |  |  |  |  | suppresses AAA dilatation |
